Experimental data from ChEMBL document CHEMBL1125116 (J Med Chem, 1990).

How the values were obtained:
D(2) dopamine receptor [1] = biological target: T1, D(2) dopamine receptor (Rattus norvegicus, UniProt P61169); experiment: Evaluated in vitro for the affinity towards Dopamine receptor D2 of rat striatal tissue
[2] = Maximum […] (Bmax) was determined.; type: ADME, organism-based; conditions: in vivo
D(2) dopamine receptor [3] = biological target: T1, D(2) dopamine receptor; experiment: Competitive binding assay against Dopamine receptor D2 in rat striatal membranes and [125I]-IBF radioligand; type: cell membranes, Striatum, Membrane

T1 sequence (P61169 whole entry): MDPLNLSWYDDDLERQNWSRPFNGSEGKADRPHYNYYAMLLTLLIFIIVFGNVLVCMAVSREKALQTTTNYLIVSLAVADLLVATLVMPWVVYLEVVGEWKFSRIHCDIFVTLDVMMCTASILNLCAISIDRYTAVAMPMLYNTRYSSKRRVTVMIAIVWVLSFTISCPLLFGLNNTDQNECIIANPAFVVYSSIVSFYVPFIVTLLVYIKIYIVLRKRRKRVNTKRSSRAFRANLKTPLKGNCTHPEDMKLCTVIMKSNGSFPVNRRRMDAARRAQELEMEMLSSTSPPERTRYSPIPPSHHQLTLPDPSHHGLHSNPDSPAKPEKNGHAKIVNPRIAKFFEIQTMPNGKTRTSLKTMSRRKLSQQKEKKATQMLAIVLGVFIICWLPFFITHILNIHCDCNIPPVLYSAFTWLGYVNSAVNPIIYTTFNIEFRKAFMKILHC

| Kd (D(2) dopamine receptor [1]) [nM] | Compound | Bmax [2] [pM/g] | Ki (D(2) dopamine receptor [3]) [nM] |
| --- | --- | --- | --- |
| 1.5 | CCN1CCC[C@H]1CNC(=O)c1c(OC)ccc(S(N)(=O)=O)c1I [IODOSULPIRIDE] | – | – |
| 14 | COc1cc(N=[N+]=[N-])c(I)cc1C(=O)NC1CCN(Cc2ccccc2)CC1 [IODOAZIDOCLEBOPRIDE] | – | – |
| – | NC1CCc2cc(O)c(O)cc2C1 (racemic) | – | 65.7 |

| Compound | Kd (D(2) dopamine receptor [1]) [nM] | Bmax [2] [pM/g] | Ki (D(2) dopamine receptor [3]) [nM] |
| --- | --- | --- | --- |
| CN1CN(c2ccccc2)C2(CCN(CCCC(=O)c3ccc(F)cc3)CC2)C1=O [MESPIPERONE] | 0.097 | 16.6 | – |
